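All cell lines were grown in 96-well plates and treated with compound for 48 hours. The concentration for 50% growth inhibition is given as GI50. TGI: concentration producing complete growth inhibition.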
What was measured:
Test in all cases: DTP human tumour cell line panel, 48 h; in the data active = GI50 below about 0.43 µM; inactive = the rest
786-0 renal = tested on: 786-0 renal
A498 renal = tested on: A498 renal
A549 NSCLC = tested on: A549 NSCLC
ACHN renal = tested on: ACHN renal
BT-549 breast = tested on: BT-549 breast
CAKI-1 renal = tested on: CAKI-1 renal
CCRF-CEM leukemia = tested on: CCRF-CEM leukemia
COLO 205 colon = tested on: COLO 205 colon
DU-145 prostate = tested on: DU-145 prostate
HCC-2998 colon = tested on: HCC-2998 colon
HCT-116 colon = tested on: HCT-116 colon
HCT-15 colon = tested on: HCT-15 colon
HL-60(TB) leukemia = tested on: HL-60(TB) leukemia
HOP-62 NSCLC = tested on: HOP-62 NSCLC
HOP-92 NSCLC = tested on: HOP-92 NSCLC
HS 578T breast = tested on: HS 578T breast
HT29 colon = tested on: HT29 colon
IGROV1 ovarian = tested on: IGROV1 ovarian
K-562 leukemia = tested on: K-562 leukemia
KM12 colon = tested on: KM12 colon
LOX IMVI melanoma = tested on: LOX IMVI melanoma
M14 melanoma = tested on: M14 melanoma
MALME-3M melanoma = tested on: MALME-3M melanoma
MCF7 breast = tested on: MCF7 breast
MDA-MB-231 breast = tested on: MDA-MB-231 breast
MDA-MB-435 = tested on: MDA-MB-435
MOLT-4 leukemia = tested on: MOLT-4 leukemia
NCI-H226 lung = tested on: NCI-H226 lung
NCI-H23 lung = tested on: NCI-H23 lung
NCI-H460 lung = tested on: NCI-H460 lung
NCI-H522 lung = tested on: NCI-H522 lung
NCI/ADR-RES ovarian = tested on: NCI/ADR-RES ovarian
OVCAR-4 ovarian = tested on: OVCAR-4 ovarian
OVCAR-5 ovarian = tested on: OVCAR-5 ovarian
OVCAR-8 ovarian = tested on: OVCAR-8 ovarian
PC-3 prostate = tested on: PC-3 prostate
RPMI-8226 leukemia = tested on: RPMI-8226 leukemia
SF-268 CNS = tested on: SF-268 CNS
SF-295 CNS = tested on: SF-295 CNS
SF-539 CNS = tested on: SF-539 CNS
SK-MEL-2 melanoma = tested on: SK-MEL-2 melanoma
SK-MEL-28 melanoma = tested on: SK-MEL-28 melanoma
SK-OV-3 ovarian = tested on: SK-OV-3 ovarian
SN12C renal = tested on: SN12C renal
SNB-19 CNS = tested on: SNB-19 CNS
SNB-75 CNS = tested on: SNB-75 CNS
SR leukemia = tested on: SR leukemia
SW-620 colon = tested on: SW-620 colon
T-47D breast = tested on: T-47D breast
TK-10 renal = tested on: TK-10 renal
U251 CNS = tested on: U251 CNS
UACC-257 melanoma = tested on: UACC-257 melanoma
UACC-62 melanoma = tested on: UACC-62 melanoma
UO-31 renal = tested on: UO-31 renal

CC(C)(C)c1[nH]nc2c1C(c1cc3ccccc3[nH]c1=O)Nc1cc(C(=O)OCc3ccccc3)ccc1N2 (stereo not drawn)
inactive: GI50 (786-0 renal) 3.41 µM | GI50 (A498 renal) 3.73 µM | GI50 (A549 NSCLC) 3.33 µM | GI50 (ACHN renal) 4.25 µM | GI50 (BT-549 breast) 3.35 µM | GI50 (CAKI-1 renal) 8.75 µM | GI50 (CCRF-CEM leukemia) 3.23 µM | GI50 (COLO 205 colon) 3.54 µM | GI50 (DU-145 prostate) 6.04 µM | GI50 (HCC-2998 colon) 4.08 µM | GI50 (HCT-116 colon) 3.2 µM | GI50 (HCT-15 colon) 4.65 µM | GI50 (HL-60(TB) leukemia) 3.66 µM | GI50 (HOP-62 NSCLC) 6.37 µM | GI50 (HOP-92 NSCLC) 1.35 µM | GI50 (HS 578T breast) 7.45 µM | GI50 (HT29 colon) 2.75 µM | GI50 (IGROV1 ovarian) 4.32 µM | GI50 (K-562 leukemia) 4.18 µM | GI50 (KM12 colon) 2.83 µM | GI50 (LOX IMVI melanoma) 3.35 µM | GI50 (M14 melanoma) 4.28 µM | GI50 (MALME-3M melanoma) 2.49 µM | GI50 (MCF7 breast) 3.37 µM | GI50 (MDA-MB-231 breast) 5.91 µM | GI50 (MDA-MB-435) 2.95 µM | GI50 (MOLT-4 leukemia) 3.3 µM | GI50 (NCI-H226 lung) 3.2 µM | GI50 (NCI-H23 lung) 5.14 µM | GI50 (NCI-H460 lung) 3.14 µM | GI50 (NCI-H522 lung) 3.11 µM | GI50 (NCI/ADR-RES ovarian) > 100 µM | GI50 (OVCAR-4 ovarian) 4.12 µM | GI50 (OVCAR-5 ovarian) 4.05 µM | GI50 (OVCAR-8 ovarian) 5.5 µM | GI50 (PC-3 prostate) 2.7 µM | GI50 (RPMI-8226 leukemia) 2.71 µM | GI50 (SF-268 CNS) 4.82 µM | GI50 (SF-295 CNS) 3.17 µM | GI50 (SF-539 CNS) 4.56 µM | GI50 (SK-MEL-2 melanoma) 3.33 µM | GI50 (SK-MEL-28 melanoma) 2.44 µM | GI50 (SK-OV-3 ovarian) 3.27 µM | GI50 (SN12C renal) 3.77 µM | GI50 (SNB-19 CNS) 3.28 µM | GI50 (SNB-75 CNS) 4.37 µM | GI50 (SR leukemia) 3.52 µM | GI50 (SW-620 colon) 3.53 µM | GI50 (T-47D breast) 4.08 µM | GI50 (TK-10 renal) 3.83 µM | GI50 (U251 CNS) 3.41 µM | GI50 (UACC-257 melanoma) 2.71 µM | GI50 (UACC-62 melanoma) 1.9 µM | GI50 (UO-31 renal) 3.42 µM
8.34 µM: TGI (HOP-92 NSCLC)
6.43 µM: TGI (SK-MEL-28 melanoma)
44.1 µM: TGI (MOLT-4 leukemia)
> 100 µM: TGI (786-0 renal) | TGI (A549 NSCLC) | TGI (ACHN renal) | TGI (BT-549 breast) | TGI (CAKI-1 renal) | TGI (CCRF-CEM leukemia) | TGI (DU-145 prostate) | TGI (HCC-2998 colon) | TGI (HCT-116 colon) | TGI (HCT-15 colon) | TGI (HL-60(TB) leukemia) | TGI (HOP-62 NSCLC) | TGI (HS 578T breast) | TGI (IGROV1 ovarian) | TGI (K-562 leukemia) | TGI (LOX IMVI melanoma) | TGI (M14 melanoma) | TGI (MCF7 breast) | TGI (MDA-MB-231 breast) | TGI (MDA-MB-435) | TGI (NCI-H226 lung) | TGI (NCI-H23 lung) | TGI (NCI-H460 lung) | TGI (NCI/ADR-RES ovarian) | TGI (OVCAR-4 ovarian) | TGI (OVCAR-5 ovarian) | TGI (OVCAR-8 ovarian) | TGI (PC-3 prostate) | TGI (RPMI-8226 leukemia) | TGI (SF-268 CNS) | TGI (SF-539 CNS) | TGI (SN12C renal) | TGI (SNB-19 CNS) | TGI (SNB-75 CNS) | TGI (SR leukemia) | TGI (SW-620 colon) | TGI (T-47D breast) | TGI (U251 CNS) | TGI (UACC-257 melanoma) | TGI (UO-31 renal)
7.47 µM: TGI (MALME-3M melanoma)
81.9 µM: TGI (A498 renal)
8.78 µM: TGI (NCI-H522 lung)
7.28 µM: TGI (SK-MEL-2 melanoma)
38.5 µM: TGI (SF-295 CNS)
6.52 µM: TGI (HT29 colon)
19.6 µM: TGI (TK-10 renal)
3.9 µM: TGI (UACC-62 melanoma)
8.73 µM: TGI (SK-OV-3 ovarian)
7.34 µM: TGI (KM12 colon)
10.4 µM: TGI (COLO 205 colon)

— PubChem BioAssay (NCI)
